Measured values published in patent publication US5750562A (priority 1995, dated 1998).

Legend:
A549 (human NSCLC) = assay: Cytotoxicity, A549 (human NSCLC); assay type: cell-based; details: exposition time 72 h, RPMI 1640 + 20 mM HEPES + 2 mM L-glutamine
Description: (§1) IC50 s of compounds 10, 11and paclitaxel on 6 human
(§2) Standard conditions: basal medium RPMI 1640 + 20 mM HEPES + 2 mM

L1210 (murine leukemia) = assay: Cytotoxicity, L1210 (murine leukemia); assay type: cell-based; details: Mus musculus, exposition time 48 h, RPMI 1640 + 20 mM HEPES + 2 mM L-glutamine
tumours = assay: Anti-tumoral activity (general statement); details: in words, among the compounds of formula 1
A121 (human ovarian) = assay: Cytotoxicity, A121 (human ovarian); assay type: cell-based; details: exposition time 72 h, RPMI 1640 + 20 mM HEPES + 2 mM L-glutamine
Description: as §1, §2

HT-29 (human colon) = assay: Cytotoxicity, HT-29 (human colon); assay type: cell-based; details: exposition time 72 h, RPMI 1640 + 20 mM HEPES + 2 mM L-glutamine
Description: as §1, §2

MCF7 (human breast) = assay: Cytotoxicity, MCF7 (human breast); assay type: cell-based; details: exposition time 72 h, RPMI 1640 + 20 mM HEPES + 2 mM L-glutamine
Description: as §1, §2

Cardiotoxic activity = details: in words, compared with taxol and its known derivatives
human tumours = details: background art, cited from earlier work
MCF7-ADR (resistant) = assay: cells; assay type: cell-based; details: Homo sapiens, NCI/ADR-RES, 72 h

Compound	IC50 (A549 (human NSCLC)) [nM]	IC50 (L1210 (murine leukemia)) [nM]	activity (tumours)	IC50 (A121 (human ovarian)) [nM]	IC50 (HT-29 (human colon)) [nM]	IC50 (MCF7 (human breast)) [nM]	cardiotoxic activity (Cardiotoxic activity)	anticancerogenic activity (human tumours; different forms of human tumours)	resistance induction (human tumours)	side-effects in clinical use (human tumours)	IC50 (MCF7-ADR (resistant)) [nM]
CC(=O)O[C@@]12CO[C@@H]1C[C@H](O)[C@@]1(C)C(=O)C(=O)C3=C(C)[C@@H](OC(=O)[C@H](O)[C@H](CC(C)C)NC(=O)OC(C)(C)C)C[C@@](O)([C@@H](OC(=O)c4ccccc4)[C@H]21)C3(C)C [Compound 10, 13-[(2R,3S)-3-ter-butoxycarbonylamino-2-hydroxy3-isobutyl-propanoyl]-10-deacetyl-10-dehydro-baccatine III]	1.9 ± 0.3	0.6 ± 0.1	particularly active	0.8 ± 0.3	0.4 ± 0.1	1.2 ± 0.2					
CC(=O)O[C@@]12CO[C@@H]1C[C@H](O)[C@@]1(C)C(=O)C(=O)C3=C(C)[C@@H](OC(=O)[C@H](O)[C@H](CC(C)C)NC(=O)OC(C)(C)C)[C@@H]4OC(=O)O[C@]4([C@@H](OC(=O)c4ccccc4)[C@H]21)C3(C)C [Compound 11, 13=[(2R,3S)-3-ter-butoxycarbonylamino-2-hydroxy-3-isobutyl-propanoyl]-10-dehydro-10-deacetyl-14β-hydroxy-baccatine III 1,14-carbonate]	2.1 ± 0.3	2 ± 0.1	particularly active	1.6 ± 0.2	0.6 ± 0.4	0.8 ± 0.2					
CCCCCC(=O)N[C@@H](CC(C)C)[C@@H](O)C(=O)O[C@@H]1C(C)=C2C(=O)C(=O)[C@@]3(C)[C@H]([C@H](OC(=O)c4ccccc4)[C@@]4(OC(=O)O[C@@H]14)C2(C)C)[C@]1(OC(C)=O)CO[C@@H]1C[C@@H]3O [Compound 12, 13-[(2R,3S)-3-caproylamino-2-hydroxy-3-isobutyl-propanoyl]-10-dehydro-10-deacetyl 14β-hydroxy-baccatine III 1,14-carbonate]			particularly active								
CC(=O)O[C@H]1C(=O)[C@@]2(C)[C@H]([C@H](OC(=O)c3ccccc3)[C@]3(O)C[C@H](OC(=O)[C@H](O)[C@@H](NC(=O)c4ccccc4)c4ccccc4)C(C)=C1C3(C)C)[C@]1(OC(C)=O)CO[C@@H]1C[C@@H]2O [Paclitaxel, reference compound]	5.4 ± 0.5	7 ± 3		3.7 ± 0.3	6 ± 0.6	4.3 ± 0.1	contrary to taxol	anticancerogenic activity on different forms of human tumours	induces resistance quickly	serious side-effects	395 ± 8.7
